Key:
SLCO1A2 = target: T1, SLCO1A2 (Homo sapiens, UniProt P46721); assay: Compound uptake in HEK293 cells transfected with SLCO1A2; format: cell-based; parameters: FLAG; settings: concentration not given
T1 sequence (P46721 1-670): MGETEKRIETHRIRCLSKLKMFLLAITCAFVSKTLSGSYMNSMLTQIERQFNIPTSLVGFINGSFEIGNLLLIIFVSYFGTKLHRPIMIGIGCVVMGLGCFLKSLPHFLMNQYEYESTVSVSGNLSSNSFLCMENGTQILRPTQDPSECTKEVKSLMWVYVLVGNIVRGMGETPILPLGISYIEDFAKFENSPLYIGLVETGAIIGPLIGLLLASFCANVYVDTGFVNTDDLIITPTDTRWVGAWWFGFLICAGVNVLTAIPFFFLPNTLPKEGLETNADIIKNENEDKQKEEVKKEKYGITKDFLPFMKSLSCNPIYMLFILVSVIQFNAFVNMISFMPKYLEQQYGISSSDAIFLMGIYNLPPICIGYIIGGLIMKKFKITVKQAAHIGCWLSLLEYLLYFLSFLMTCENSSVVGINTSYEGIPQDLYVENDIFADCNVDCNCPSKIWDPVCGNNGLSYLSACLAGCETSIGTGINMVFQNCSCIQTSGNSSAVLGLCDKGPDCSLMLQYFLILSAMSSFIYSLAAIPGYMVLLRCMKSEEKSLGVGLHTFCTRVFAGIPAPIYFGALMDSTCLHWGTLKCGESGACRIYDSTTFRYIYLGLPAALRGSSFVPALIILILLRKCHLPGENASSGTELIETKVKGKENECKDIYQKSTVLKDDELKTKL
Method: (§1) HEK293 cells are cultured and seeded at ~60% confluency in 24-well plates and are transiently transfected with 250 ng of a candidate transporter and 1 μL transfection reagent (JetPRIME). After 2 days, cells are washed and novel fluorescent probes at different concentrations are added to the transport medium and incubated at 37° C., for at least 30 minutes. To terminate the transport, cells are washed with PBS and fixed with 4% paraformaldehyde. The colocalization of probe uptake and cells expressing the transporters is investigated by immunostaining the transporter which has a fused FLAG tag, using anti-FLAG 488. Before confocal imaging, nuclei are labeled with Hoechst 33342 and cells are mounted and imaged on a Leica SP8 confocal microscope.
(§2) For in vitro experiments, HEK293 cells were cultured and seeded in 24-well plates, reaching approximately 60% confluency. For transient transfection, 250 ng of a candidate transporter plasmid and 1 μL of transfection reagent (JetPRIME) were added to the cells. After a 2-day incubation period, the cells were washed, and novel fluorescent probes were introduced into the transport medium at various concentrations. The cells were then incubated at 37° C., for a minimum of 30 minutes to allow for uptake. To stop the transport process, the cells were washed with PBS and fixed using 4% paraformaldehyde. Immunostaining of the transporter, which was fused with a FLAG tag, was performed using an anti-FLAG 488 antibody. Before confocal imaging, the cell nuclei were labeled with Hoechst 33342. Finally, the cells were mounted and imaged using a Leica SP8 confocal microscope.

Slco1a4 = target: T2, Slco1a4 (Mus musculus, UniProt Q9EP96); assay: Compound uptake in HEK293 cells transfected with Slco1a4; format: cell-based; parameters: FLAG; expressed in transfected cells; settings: concentration not given
T2 sequence (Q9EP96 1-670): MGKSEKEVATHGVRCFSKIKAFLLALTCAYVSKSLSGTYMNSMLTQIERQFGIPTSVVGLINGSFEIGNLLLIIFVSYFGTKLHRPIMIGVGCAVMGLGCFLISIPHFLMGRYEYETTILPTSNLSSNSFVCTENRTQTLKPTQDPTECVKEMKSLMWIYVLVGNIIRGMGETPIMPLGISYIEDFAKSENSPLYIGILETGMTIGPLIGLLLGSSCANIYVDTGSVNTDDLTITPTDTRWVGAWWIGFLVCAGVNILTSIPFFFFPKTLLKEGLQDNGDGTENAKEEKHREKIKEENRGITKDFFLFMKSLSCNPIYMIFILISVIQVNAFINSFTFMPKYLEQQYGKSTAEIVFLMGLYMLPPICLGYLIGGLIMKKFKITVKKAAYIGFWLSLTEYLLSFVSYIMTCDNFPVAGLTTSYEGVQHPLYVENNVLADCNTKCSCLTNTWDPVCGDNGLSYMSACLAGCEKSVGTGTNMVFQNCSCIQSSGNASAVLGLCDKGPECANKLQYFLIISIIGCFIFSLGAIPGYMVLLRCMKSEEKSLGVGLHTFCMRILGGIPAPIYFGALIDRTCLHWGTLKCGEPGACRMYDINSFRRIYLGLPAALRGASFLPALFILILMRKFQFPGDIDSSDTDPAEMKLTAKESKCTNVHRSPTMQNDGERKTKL
Method: as §1, §2

SMILES: CCN(CC)c1ccc2c(-c3ccc(S(=O)(=O)NCCNC(=O)c4ccc(Nc5nc(N(C)[C@H]6CN(C(=O)CC#N)CC[C@H]6C)c6cc[nH]c6n5)cc4)cc3S(=O)(=O)[O-])c3ccc(=[N+](CC)CC)cc-3oc2c1 [Compound 53, 5-(N-(2-(4-((4-(((3R,4R)-1-(2-cyanoacetyl)-4-methylpiperidin-3-yl)(methyl)amino)-7H-pyrrolo[2,3-d]pyrimidin-2-yl)amino)benzamido)ethyl)sulfamoyl)-2-(6-(diethylamino)-3-(diethyliminio)-3H-xanthen-9-yl)benzenesulfonate]
- uptake in SLCO1A2 transfected HEK293 cells (SLCO1A2): is taken up
- uptake in Slco1a4 transfected HEK293 cells (Slco1a4): is taken up
